One experiment concerns endogenous GH. The experiment in a line: Auditory fear conditioning after intra-BLA AAV (GHA or GFP) and 10 days of systemic MK-0677 or saline. To be noted: 10 days MK-0677 or saline, tested 48 h after conditioning. Type of experiment: in vivo, rat. The protocol:
(§1) Animals were killed 24 h after the last stress or handling session and the basolateral complex of the amygdala (BLA) was dissected. Growth hormone (GH) levels in the BLA were measured using enzyme-linked immunosorbent assay (ELISA). b) The herpes simplex virus (HSV)-based viral vectors expressing either green fluorescent protein (GFP; CON) or recombinant rat GH (rGH) was infused in the BLA and expression was assessed after behavioral testing was complete. Representative GFP expression from two rats is shown. c) Auditory Pavlovian fear conditioning was performed 3 days after HSV virus infusions. d) Long-term fear memory was assessed by placing the animals in a novel context and measuring conditional freezing following tone presentation 48 h after the conditioning session. e) Short-term BLA cell cultures were used to measure GH release following treatment with a ghrelin receptor agonist (MK) or vehicle (VEH). f) Adeno-associated virus (AAV) constructs were generated to examine the contribution of GH-mediated signaling in the BLA to ghrelin-induced potentiation of fear. g) Following infusion of the AAVs into the BLA and recovery, rats received 10 days of systemic injection of either a ghrelin receptor agonist (MK) or vehicle (VEH). […]

For the next experiment, the target named is T1, ghrelin receptor (Rattus norvegicus, UniProt O08725).
T1 construct: short-term cultures were generated of BLA cells and measured GH protein in the media following treatment with either MK-0677 or vehicle; endogenous in cells; host or cells: short-term cultures of basolateral amygdala (BLA) cells
The experiment in a line: GH release from short-term BLA cell cultures after ghrelin receptor stimulation. Type of experiment: cell-based. To be noted: versus vehicle. The method, then:
as §1

The next experiment has as its system GH. To be noted: Varga et al, Proc. Natl. Acad. Sci. USA 1999; cited from earlier work.

T1 sequence (O08725 whole entry): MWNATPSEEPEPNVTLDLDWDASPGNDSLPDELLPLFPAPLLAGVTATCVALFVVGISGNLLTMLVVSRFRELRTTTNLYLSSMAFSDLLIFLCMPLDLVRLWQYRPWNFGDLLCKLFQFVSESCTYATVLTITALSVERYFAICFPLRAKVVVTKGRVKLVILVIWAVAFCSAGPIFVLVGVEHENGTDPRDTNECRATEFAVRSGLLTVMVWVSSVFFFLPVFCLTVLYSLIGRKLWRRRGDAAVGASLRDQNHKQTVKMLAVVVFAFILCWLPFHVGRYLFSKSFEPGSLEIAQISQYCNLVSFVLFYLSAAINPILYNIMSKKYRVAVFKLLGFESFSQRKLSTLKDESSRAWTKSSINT

Turning to `CC(C)(N)C(=O)N[C@H](COCc1ccccc1)C(=O)N1CCC2(CC1)CN(S(C)(=O)=O)c1ccccc12` [MK-0677], the “long-term auditory fear memory” value in the experiment with endogenous GH is “fear-enhancing effects”. Also, the “release of GH into the media” value on ghrelin receptor is recorded as “significantly elevated release of GH”.

For the compound “[PhAc-Tyr1,D-Arg2,Phe(4-Cl)6, Har9,Tyr(Me)10,Abu15,Nle27,D-Arg28,Har29]hGH-RH(1-29)NH2 [JV-1-38]”, the antagonistic activity result in the experiment on GH was “high and or protracted antagonistic activity”.

As for “[PhAc-Tyr1,D-Arg2,Phe(4-Cl)6,Abu15,Nle27, D-Arg28,Har29]hGH-RH(1-29)NH2 [MZ-6-55]”, the antagonistic activity result with GH is “high and or protracted antagonistic activity”.

Take “[PhAc-Tyr1,DArg2, Phe(4-Cl)6,Arg9,Abu15,Nle27,D-Arg28,Har29]hGH-RH(1-29)NH2 [JV-1-36]”: in the experiment on GH, the antagonistic activity result is “high and or protracted antagonistic activity”.

On to “[PhAc-Tyr1,DArg2, Phe(4-Cl)6,Arg9,Abu15,Nle27,D-Arg29]hGH-RH(1-29)NH2 [JV-1-10]”, for which, in the experiment with GH, the antagonistic activity result is “high and or protracted antagonistic activity”.
